Measurements as given in patent US8952024B2, “Herbicidal pyrimidone derivatives” (E I du Pont de Nemours and Company, priority 2009, dated 2015).

Columns and labels:
Format in all cases: in vivo
corn (Zea mays) = assay: Test A pre-/postemergence plant response
How it was run: (§1)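 Pre: directed soil spray on seeded loam/sand blend. Post: same formulation (non-phytotoxic solvent + surfactant) on 2–10 cm plants, 1–2 leaf stage. Greenhouse ~10 d; visual injury score 0–100 vs untreated.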

[1] = test system: large crabgrass (Digitaria sanguinalis); assay: Test A pre-/postemergence plant response
How it was run: as §1

[2] = test system: velvetleaf (Abutilon theophrasti); assay: Test A pre-/postemergence plant response
How it was run: as §1

[3] = test system: barnyardgrass (Echinochloa crus-galli); assay: Test A pre-/postemergence plant response
How it was run: as §1

[4] = test system: pigweed (Amaranthus retroflexus); assay: Test A pre-/postemergence plant response
How it was run: as §1

[5] = test system: wheat (Triticum aestivum); assay: Test A pre-/postemergence plant response
How it was run: as §1

[6] = test system: morningglory (Ipomoea spp.); assay: Test A pre-/postemergence plant response
How it was run: as §1

[7] = test system: giant foxtail (Setaria faberii); assay: Test A pre-/postemergence plant response
How it was run: as §1

[8] = test system: barnyardgrass (Echinochloa crus-galli); assay: Test B flooded paddy test; conditions: for Plant response rating, Flood, Barnyardgrass: 250 g ai/ha, flooded paddy test, visual rating on 0 to 100 scale (0 no effect, 100 complete control) after 13 to 15 days; for Plant response rating, Barnyardgrass: Flood (flooded paddy test), 13 to 15 days
How it was run: (§2)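 Seedlings reaching 2 leaves are flooded 3 cm deep; test material is delivered to that water, which stays at the same depth. Plants remain in a greenhouse 13–15 days and are then scored by eye versus controls from 0 to 100.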

rice (Oryza sativa) = assay: Test B flooded paddy test; conditions: for Plant response rating, Flood, Rice: 250 g ai/ha, flooded paddy test, visual rating on 0 to 100 scale (0 no effect, 100 complete control) after 13 to 15 days; for Plant response rating, Rice: Flood (flooded paddy test), 13 to 15 days
How it was run: as §2

[9] = test system: ducksalad (Heteranthera limosa); assay: Test B flooded paddy test; conditions: for Plant response rating, Flood, Ducksalad: 250 g ai/ha, flooded paddy test, visual rating on 0 to 100 scale (0 no effect, 100 complete control) after 13 to 15 days; for Plant response rating, Ducksalad: Flood (flooded paddy test), 13 to 15 days
How it was run: as §2

[10] = test system: umbrella sedge (Cyperus difformis); assay: Test B flooded paddy test; conditions: for Plant response rating, Flood, Sedge, Umbrella: 250 g ai/ha, flooded paddy test, visual rating on 0 to 100 scale (0 no effect, 100 complete control) after 13 to 15 days; for Plant response rating, Sedge, Umbrella: Flood (flooded paddy test), 13 to 15 days
How it was run: as §2

[11] = Postemergence, 125 g ai/ha, 0 to 100 scale where 0 is no effect and 100 is complete control
[12] = Postemergence, 500 g ai/ha, 0 to 100 scale, 0 = no effect, 100 = complete control, approx. ten days
[13] = Preemergence, 125 g ai/ha, 0 to 100 scale, 0 = no effect, 100 = complete control
[14] = Preemergence, 500 g ai/ha, visual injury, 0 to 100 scale (0 no effect, 100 complete control), approx. ten days
[15] = Preemergence, 500 g ai/ha, 0 to 100 scale, 0 = no effect, 100 = complete control
[16] = 62 g ai/ha, scale of 0 to 100 where 0 is no effect and 100 is complete control
[17] = 125 g ai/ha, scale 0 to 100, 0 is no effect, 100 is complete control
[18] = Flood, 31 g ai/ha, scale 0 to 100 (0 no effect, 100 complete control)
[19] = Postemergence, 125 g ai/ha, visual injury, 0 to 100 scale (0 no effect, 100 complete control), approx. ten days
[20] = 31 g ai/ha, scale of 0 to 100 where 0 is no effect and 100 is complete control
[21] = 62 g ai/ha, scale 0 to 100, 0 is no effect, 100 is complete control

In the case of Cc1ccc(Cl)cc1-n1c(-c2cccc(Cl)c2)ncc(C(=O)C2=C(O)CCCC2=O)c1=O [Compound 148], the “Plant response rating, Corn” value (corn (Zea mays); [11]) is reported as 0, the “Plant response rating, Corn” value (corn (Zea mays); [12]) is reported as 60 and the “Plant response rating, Corn” value (corn (Zea mays); [13]) is reported as 0. For the same compound, the “Plant response rating, Corn” value (corn (Zea mays); [14]) was 0, the “Plant response rating, Crabgrass, Large” value [1, 11] was 70 and the “Plant response rating, Crabgrass, Large” value [1, 12] was 90. For the same compound, the “Plant response rating, Crabgrass, Large” value [1, 13] was 0, the “Plant response rating, Crabgrass, Large” value [1, 14] was 50 and the “Plant response rating, Velvetleaf” value [2, 11] was 100. The “Plant response rating, Velvetleaf” value [2, 12] was 100, the “Plant response rating, Velvetleaf” value [2, 13] was 30 and the “Plant response rating, Velvetleaf” value [2, 15] was 80. For the same compound, the “Plant response rating, Barnyardgrass” value [3, 11] was 90, the “Plant response rating, Barnyardgrass” value [3, 12] was 100 and the “Plant response rating, Barnyardgrass” value [3, 13] was 10. The “Plant response rating, Barnyardgrass” value [3, 14] was 30, the “Plant response rating, Pigweed” value [4, 11] was 90 and the “Plant response rating, Pigweed” value [4, 12] was 100. For the same compound, the “Plant response rating, Pigweed” value [4, 13] was 0, the “Plant response rating, Pigweed” value [4, 14] was 60 and the “Plant response rating, Wheat” value [5, 11] was 0. The “Plant response rating, Wheat” value [5, 12] was 0, the “Plant response rating, Wheat” value [5, 13] was 0 and the “Plant response rating, Wheat” value [5, 15] was 0. The “Plant response rating, Morningglory” value [6, 11] was 100, the “Plant response rating, Morningglory” value [6, 12] was 100 and the “Plant response rating, Morningglory” value [6, 13] was 0. For the same compound, the “Plant response rating, Morningglory” value [6, 14] was 0, the “Plant response rating, Foxtail, Giant” value [7, 11] was 60 and the “Plant response rating, Foxtail, Giant” value [7, 12] was 90. For the same compound, the “Plant response rating, Foxtail, Giant” value [7, 13] was 0, the “Plant response rating, Foxtail, Giant” value [7, 14] was 10 and the “Plant response rating, Flood, Barnyardgrass” value [8] was 50. For the same compound, the “Plant response rating, Barnyardgrass” value [8, 16] was 0, the “Plant response rating, Barnyardgrass” value [8, 17] was 15 and the “Barnyardgrass plant response rating” value [8, 18] was 0. The “Plant response rating, Flood, Rice” value (rice (Oryza sativa)) was 50, the “Plant response rating, Rice” value (rice (Oryza sativa); [16]) was 10 and the “Plant response rating, Rice” value (rice (Oryza sativa); [17]) was 20. For the same compound, the “Rice plant response rating” value (rice (Oryza sativa); [18]) was 20, the “Plant response rating, Flood, Ducksalad” value [9] was 100 and the “Plant response rating, Ducksalad” value [9, 16] was 90. The “Plant response rating, Ducksalad” value [9, 17] was 90, the “Ducksalad plant response rating” value [9, 18] was 90 and the “Plant response rating, Flood, Sedge, Umbrella” value [10] was 95. For the same compound, the “Plant response rating, Sedge, Umbrella” value [10, 16] was 80, the “Plant response rating, Sedge, Umbrella” value [10, 17] was 85 and the “Sedge, Umbrella plant response rating” value [10, 18] was 80.
O=C1CCCC([O-])=C1C(=O)c1cnc(-c2ccccc2)n(-c2ccc(Cl)cc2)c1=O.[K+] [Compound 13] was tested, and the “Corn plant response rating” value (corn (Zea mays); [19]) was 0, the “Plant response rating, Corn” value (corn (Zea mays); [12]) was 50 and the “Plant response rating, Corn” value (corn (Zea mays); [13]) was 0. The “Plant response rating, Corn” value (corn (Zea mays); [14]) was 20, the “Crabgrass, Large plant response rating” value [1, 19] was 30 and the “Plant response rating, Crabgrass, Large” value [1, 12] was 90. For the same compound, the “Plant response rating, Crabgrass, Large” value [1, 13] was 60, the “Plant response rating, Crabgrass, Large” value [1, 14] was 100 and the “Velvetleaf plant response rating” value [2, 19] was 100. The “Plant response rating, Velvetleaf” value [2, 12] was 100, the “Plant response rating, Velvetleaf” value [2, 13] was 80 and the “Plant response rating, Velvetleaf” value [2, 14] was 100. For the same compound, the “Barnyardgrass plant response rating” value [3, 19] was 30, the “Plant response rating, Barnyardgrass” value [3, 12] was 90 and the “Plant response rating, Barnyardgrass” value [3, 13] was 10. The “Plant response rating, Barnyardgrass” value [3, 14] was 90, the “Pigweed plant response rating” value [4, 19] was 80 and the “Plant response rating, Pigweed” value [4, 12] was 100. For the same compound, the “Plant response rating, Pigweed” value [4, 13] was 40, the “Plant response rating, Pigweed” value [4, 14] was 100 and the “Wheat plant response rating” value [5, 19] was 10. The “Plant response rating, Wheat” value [5, 12] was 60, the “Plant response rating, Wheat” value [5, 13] was 0 and the “Plant response rating, Wheat” value [5, 14] was 40. For the same compound, the “Morningglory plant response rating” value [6, 19] was 0, the “Plant response rating, Morningglory” value [6, 12] was 50 and the “Plant response rating, Morningglory” value [6, 13] was 0. The “Plant response rating, Morningglory” value [6, 14] was 0, the “Foxtail, Giant plant response rating” value [7, 19] was 30 and the “Plant response rating, Foxtail, Giant” value [7, 12] was 80. For the same compound, the “Plant response rating, Foxtail, Giant” value [7, 13] was 50, the “Plant response rating, Foxtail, Giant” value [7, 14] was 90 and the “Plant response rating, Flood, Barnyardgrass” value [8] was 35. The “Plant response rating, Barnyardgrass” value [8, 20] was 0, the “Plant response rating, Barnyardgrass” value [8, 21] was 0 and the “Plant response rating, Barnyardgrass” value [8, 17] was 0. For the same compound, the “Plant response rating, Flood, Rice” value (rice (Oryza sativa)) was 25, the “Plant response rating, Rice” value (rice (Oryza sativa); [20]) was 0 and the “Plant response rating, Rice” value (rice (Oryza sativa); [21]) was 0. For the same compound, the “Plant response rating, Rice” value (rice (Oryza sativa); [17]) was 0, the “Plant response rating, Flood, Ducksalad” value [9] was 95 and the “Plant response rating, Ducksalad” value [9, 20] was 0. For the same compound, the “Plant response rating, Ducksalad” value [9, 21] was 0, the “Plant response rating, Ducksalad” value [9, 17] was 0 and the “Plant response rating, Flood, Sedge, Umbrella” value [10] was 85. For the same compound, the “Plant response rating, Sedge, Umbrella” value [10, 20] was 0, the “Plant response rating, Sedge, Umbrella” value [10, 21] was 0 and the “Plant response rating, Sedge, Umbrella” value [10, 17] was 60.
